Source: ChEMBL document CHEMBL5038635, “Discovery of Salidroside-Derivated Glycoside Analogues as Novel Angiogenesis Agents to Treat Diabetic Hind Limb Ischemia” (J Med Chem, 2022)
Activity calls are given as the source filed them. The rule behind the calls is not given here.

Columns and labels:
C2C12 [1] = assay: Apoptotic rate in mouse C2C12 cells with silenced HIF-1alpha assessed as necrotic cells at 30 uM by AnnexinV-FITC/PI staining based FACS analysis (reference value: 0.31 %); assay type: functional
C2C12 [2] = assay: Angiogenic activity in mouse C2C12 cells assessed as reversal of hyperglycemia-induced reduction in total cell number at 100 uM measured after 24 to 36 hrs by EdU-incorporation assay; assay type: functional, cell-based; settings: time 24-36 hrs
[3] = Stability in rat plasma assessed as compound remaining at 6.25 to 25 mg/L after 12 hrs by HPLC analysis; assay type: ADME, cell-free; settings: at 6.25 to 25 µg/mL, dose 6.25-25 mg/L, read-out: Stability
C2C12 [4] = assay: Apoptotic rate in hyperglycemia-treated mouse C2C12 cells assessed as late apoptotic cells at 15 uM by AnnexinV-FITC/PI staining based flow cytometric analysis (reference value: 10.44 %); assay type: functional
C2C12 [5] = assay: Apoptotic rate in hyperglycemia-treated mouse C2C12 cells assessed as early apoptotic cells at 15 uM by AnnexinV-FITC/PI staining based flow cytometric analysis (reference value: 7.10 %); assay type: functional
C2C12 [6] = assay: Angiogenic activity in mouse C2C12 cells assessed as accumulation PDGF-BB protein expression at 300 uM by Western blot analysis; assay type: functional, cell-based
Mus musculus [7] = assay: Angiogenic activity in diabetic HLI C57BL/6 mouse model assessed as increase in number of PECAM-1-positive cells at 30 mg/kg administered intramuscularly for 21 days followed by surgery by immunofluorescence analysis; assay type: functional, organism-based; settings: time 21.0 day
C2C12 [8] = assay: Apoptotic rate in hyperglycemia-treated mouse C2C12 cells assessed as viable cells at 15 uM by AnnexinV-FITC/PI staining based flow cytometric analysis (reference value: 81.90 %); assay type: functional; settings: read-out: Activity
C2C12 [9] = assay: Angiogenic activity in mouse C2C12 cells assessed as accumulation VEGF-A protein expression at 300 uM by Western blot analysis; assay type: functional, cell-based
Mus musculus [10] = assay: Angiogenic activity in diabetic HLI C57BL/6 mouse model assessed as increase in number of PECAM-1/alpha-SMA double-positive cells at 30 mg/kg, im administered for 21 days followed by surgery by immunofluorescence analysis; assay type: functional, organism-based; settings: time 21.0 day
C2C12 [11] = assay: Upregulation of FGF18 protein expression in mouse C2C12 cells at 30 uM by Western blot analysis; assay type: functional, cell-based
C2C12 [12] = assay: Reversal of cell migration in mouse C2C12 cells at 30 uM under hyperglycemic condition incubated for 24 hrs by crystal violet dye based transwell chamber assay; assay type: functional
C2C12 [13] = assay: Apoptotic rate in hyperglycemia-treated mouse C2C12 cells assessed as necrotic cells at 15 uM by AnnexinV-FITC/PI staining based flow cytometric analysis (reference value: 0.56 %); assay type: functional
Mus musculus [14] = assay: Antidiabetic activity in diabetic HLI C57BL/6 mouse model assessed as suppression of apoptotic rate in skeletal muscle cell in gastrocnemius muscle at 15 to 30 mg/kg, IM administered by TUNEL assay; assay type: functional, organism-based; settings: dose 15-30 mg/kg
C2C12 [15] = assay: Upregulation of ANG1 protein expression in mouse C2C12 cells at 30 uM by Western blot analysis; assay type: functional, cell-based
C2C12 [16] = assay: Reversal of hyperglycemia-induced VEGF-A protein level reduction in mouse C2C12 cells measured at 30 uM by Western blot analysis; assay type: functional, cell-based
C2C12 [17] = assay: Upregulation of […] protein expression in mouse C2C12 cells at 30 uM by Western blot analysis; assay type: functional, cell-based
MOVAS-1 [18] = assay: Angiogenesis activity in mouse MOVAS-1 cells assessed as suppression of cell migration using conditioned medium of mouse C2C12 cells treated at 30 uM under hyperglycemic condition for 12 hrs followed by hypoxia for 24 hrs by crystal violet dye based transwell assay; assay type: functional; settings: time 36.0 hrs
[19] = Efflux ratio of Apparent permeability across basolateral to apical side over apical to basolateral side in human Caco-2 cells
C2C12 [20] = assay: Angiogenesis activity in mouse C2C12 cells with silenced HIF-1alpha assessed increase in cell migration at 30 uM under hyperglycemic condition incubated for 24 hrs by crystal violet dye based transwell chamber assay; assay type: functional
MOVAS-1 [21] = assay: Angiogenic activity in mouse MOVAS-1 cells assessed as suppression of F-actin polymerization at 30 uM using conditioned medium of mouse C2C12 cells treated at 30 uM under hyperglycemic condition for 12 hrs followed by hypoxia for 12 hrs by phalloidin staining based confocal microscopy; assay type: functional, cell-based; settings: time 24.0 hrs
C2C12 [22] = assay: Increase in VEGF-A protein expression level in […] mouse C2C12 cells at 30 uM by Western blot analysis; assay type: functional, cell-based
[23] = Toxicity in diabetic HLI C57BL/6 mouse model assessed as liver pathology at 30 mg/kg, IM administered by HE staining based assay; assay type: organism-based; settings: in vivo
[24] = Protein binding in human plasma by balanced dialysis method; assay type: ADME, cell-free; settings: read-out: PPB (converted)
HUVEC = assay: Angiogenesis activity in human HUVEC cells assessed as increase of cell migration using conditioned medium of mouse C2C12 cells with silenced HIF-1alpha treated at 30 uM under hyperglycemic condition for 12 hrs followed by hypoxia for 24 hrs by crystal violet dye based transwell assay; assay type: functional; settings: time 36.0 hrs
Mus musculus [25] = assay: Antidiabetic activity in diabetic HLI C57BL/6 mouse model assessed as increase in blood perfusion recovery at 30 mg/kg administered intramuscularly; assay type: functional, organism-based
MOVAS-1 [26] = assay: Angiogenesis activity in mouse MOVAS-1 assessed as increase of cell migration using conditioned medium of mouse C2C12 cells with silenced HIF-1alpha treated at 30 uM under hyperglycemic condition for 12 hrs followed by hypoxia for 24 hrs by crystal violet dye based transwell assay; assay type: functional; settings: time 36.0 hrs
Mus musculus [27] = assay: Antidiabetic activity in diabetic HLI C57BL/6 mouse model assessed as PDGF-BB protein expression at 30 mg/kg, im administered for 21 days followed by surgery by Western blot analysis; assay type: functional, organism-based; settings: time 21.0 day
C2C12 [28] = assay: Induction of cell migration in mouse C2C12 cells at 30 uM under hyperglycemic condition incubated for 24 hrs by crystal violet dye based transwell chamber assay; assay type: functional
C2C12 [29] = assay: Upregulation of FGF1protein expression in mouse C2C12 cells at 30 uM by Western blot analysis; assay type: functional, cell-based
[30] = Toxicity in diabetic HLI C57BL/6 mouse model assessed as heart pathology at 30 mg/kg, IM administered by HE staining based assay; assay type: organism-based; settings: in vivo
C2C12 [31] = assay: Upregulation of HO-1 protein expression in mouse C2C12 cells at 30 uM by Western blot analysis; assay type: functional, cell-based
C2C12 [32] = assay: Upregulation of FGF2 protein expression in mouse C2C12 cells at 30 uM by Western blot analysis; assay type: functional, cell-based
Mus musculus [33] = assay: Antidiabetic activity in diabetic HLI C57BL/6 mouse model assessed as increase in blood perfusion recovery at 30 mg/kg administered intramuscularly measured after 21 days; assay type: functional; settings: time 21 day
C2C12 [34] = assay: Upregulation of PDGF-B protein expression in mouse C2C12 cells at 30 uM by Western blot analysis; assay type: functional, cell-based
Mus musculus [35] = assay: Antidiabetic activity in diabetic HLI C57BL/6 mouse model assessed as effect on blood glucose level at 30 mg/kg administered intramuscularly measured after 3 days; assay type: functional, organism-based; settings: time 3.0 day
C2C12 [36] = assay: Effect on PHD1 mRNA expression in mouse C2C12 cells at 30 uM by qRT-PCR analysis; assay type: functional, cell-based

COc1ccc(Cc2cccc(O[C@@H]3O[C@H](CO)[C@@H](O)[C@H](O)[C@H]3O)c2)cc1
Activity (C2C12 [1]): 0.16%
Activity (C2C12 [2]): inactive
remaining at 12 h [3]: 98.5%
Activity (C2C12 [4]): 7.61%
Activity (C2C12 [5]): 3.14%
inhibition (C2C12 [6]): Active
Activity (Mus musculus [7]): Active
viability at 15 µM (C2C12 [8]): 88.9%
inhibition (C2C12 [9]): Active
Activity (Mus musculus [10]): Active
Activity (C2C12 [11]): Active
Activity (C2C12 [12]): Active
Activity (C2C12 [13]): 0.38%
Activity (Mus musculus [14]): Active
Activity (C2C12 [15]): Active
Activity (C2C12 [16]): Active
Activity (C2C12 [17]): Active
Activity (MOVAS-1 [18]): Active
efflux ratio [19]: 1.07
Activity (C2C12 [20]): inactive
Activity (MOVAS-1 [21]): Active
Activity (C2C12 [22]): inactive
Activity [23]: Non-Toxic
fraction unbound [24]: 0.669
Activity (HUVEC): Active
Activity (Mus musculus [25]): Active
Activity (MOVAS-1 [26]): Active
Activity (Mus musculus [27]): Active
Activity (C2C12 [28]): Active
Activity (C2C12 [29]): Active
Activity [30]: Non-Toxic
Activity (C2C12 [31]): Active
Activity (C2C12 [32]): Active
Activity (Mus musculus [33]): 80%
Activity (C2C12 [34]): Active
Activity (Mus musculus [35]): Active
Activity (C2C12 [36]): inactive
